Measurements reported in patent US12570666B2, “Furoindazole derivatives” (Bayer Aktiengesellschaft, priority 2019, dated 2026).

Biological target: T1, human GPR84 receptor (Homo sapiens, UniProt Q9NQS5)
T1 construct: frozen aliquots prepared by acCELLerate; host or cells: CHO-K1
Assay: cAMP HTRF assay for identification of cellular GPR84 antagonists
Assay type: cell-based
Conditions: CHO-K1 cells stably expressing human GPR84; Forskolin + agonist 6-OAU (EC80); average or median values
How it was run: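 IC50 came from 4-parameter fits over 20 μM–0.07 nM (11 points, duplicate), normalized between DMSO (0%) and agonist-free (100% inhibition) wells. Readout: cAMP-d2/Eu-cryptate HTRF in hGPR84 CHO-K1 cells given forskolin plus agonist, compound preincubated 30 min at room temperature.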

T1 sequence (Q9NQS5 whole entry): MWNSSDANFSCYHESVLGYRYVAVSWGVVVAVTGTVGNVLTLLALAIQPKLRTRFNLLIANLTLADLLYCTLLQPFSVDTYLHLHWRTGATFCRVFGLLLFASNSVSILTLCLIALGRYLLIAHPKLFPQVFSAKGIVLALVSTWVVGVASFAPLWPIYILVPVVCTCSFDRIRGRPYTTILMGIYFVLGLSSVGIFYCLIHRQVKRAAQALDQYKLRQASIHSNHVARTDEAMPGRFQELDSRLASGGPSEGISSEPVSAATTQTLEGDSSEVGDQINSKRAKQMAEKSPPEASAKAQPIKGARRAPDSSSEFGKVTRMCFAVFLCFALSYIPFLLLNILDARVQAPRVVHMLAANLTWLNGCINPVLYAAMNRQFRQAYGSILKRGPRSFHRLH

Row | IC50 [µM] | Compound
1 | 0.067 | Cn1ccc(CNC(=O)c2oc3c(c2C2CC2)-c2nn(Cc4ccccn4)cc2CC3)n1 [Example 121, 8-cyclopropyl-N-[(1-methyl-1H-pyrazol-3-yl)methyl]-2-(pyridin-2-ylmethyl)-4,5-dihydro-2H-furo[2,3-g]indazole-7-carboxamide]
2 | 0.016 | Cc1c(C(=O)NCC2CCCO2)oc2c1-c1nn(CC3COc4ncccc4O3)cc1CC2 (single isomer, unassigned) [Example 52-2]
3 | 0.007 | C[C@@H]1Cc2oc(C(=O)NC[C@@H]3CCCO3)c(C(F)(F)F)c2-c2nn(CC3CCN(C(=O)C4(O)CC4)CC3)cc21 (single isomer, unassigned) [Example 293, (4R or 4S)-2-{[1-(1-hydroxycyclopropane-1-carbonyl)piperidin-4-yl]methyl}-4-methyl-N-{[(2S)-oxolan-2-yl]methyl}-8-(trifluoromethyl)-4,5-dihydro-2H-furo[2,3-g]indazole-7-carboxamide]
4 | 0.19 | Cc1ccc(Cn2cc3c(n2)-c2c(oc(C(=O)NC[C@@H]4COCCO4)c2C)CC3)c(C)n1 [Example 78, 2-[(2,6-dimethylpyridin-3-yl)methyl]-N-[(2R)-1,4-dioxan-2-ylmethyl]-8-methyl-4,5-dihydro-2H-furo[2,3-g]indazole-7-carboxamide]
5 | 0.266 | Cc1cccc(CNC(=O)c2oc3c(c2C(F)(F)F)-c2nn(C[C@H]4COCCO4)cc2[C@H](C)C3)n1 (single isomer, unassigned) [Example 315, (4R or 4S)-2-{[(2S)-1,4-dioxan-2-yl]methyl}-4-methyl-N-[(6-methylpyridin-2-yl)methyl]-8-(trifluoromethyl)-4,5-dihydro-2H-furo[2,3-g]indazole-7-carboxamide]
6 | 0.029 | Cc1c(C(=O)NCC2CCC(C)(C)O2)oc2c1-c1nn(C[C@H]3COCCO3)cc1C1(CC1)C2 (mixture of isomers) [Example 195]
7 | 0.16 | Cc1c(C(=O)NCc2nccs2)oc2c1-c1nn(Cc3ccccn3)cc1CC2 [Example 23, 8-methyl-2-(pyridin-2ylmethyl)-N-(1,3-thiazol-2-ylmethyl)-4,5-dihydro-2H-furo[2,3-g]indazole-7-carboxamide]
8 | 12 | Cc1c(C(=O)NCC2CCCCO2)oc2c1-c1nn(Cc3ccccn3)cc1CC2 (racemic) [Example 172]
9 | 0.091 | Cc1c(C(=O)NC[C@@H]2CCCO2)oc2c1-c1nn(C[C@@H]3CCOC3)cc1CC2 [Example 113, 8-methyl-N-[(2S)-tetrahydrofuran-2-ylmethyl]-2-[(3S)-tetrahydrofuran-3-ylmethyl]-4,5-dihydro-2H-furo[2,3-g]indazole-7-carboxamide]
10 | 0.607 | Cc1c(C(=O)NC[C@@H]2CCCO2)oc2c1-c1nn(C[C@H]3COCCO3)cc1C(C(F)(F)F)C2 (mixture of isomers) [Example 266, (4±)-2-{[(2S)-1,4-dioxan-2-yl]methyl}-8-methyl-N-{[(2S)-oxolan-2-yl]methyl}-4-(trifluoromethyl)-4,5-dihydro-2H-furo[2,3-g]indazole-7-carboxamide]
11 | 6.56 | Cc1c(C(=O)NCc2cnoc2)oc2c1-c1nn(Cc3ccccn3)cc1CC2 [Example 24, 8-methyl-N-(1,2-oxazol-4-ylmethyl)-2-(pyridin-2-ylmethyl)-4,5-dihydro-2H-furo[2,3-g]indazole-7-carboxamide]
12 | 0.15 | Cc1c(C(=O)NCc2ncco2)oc2c1-c1nn(Cc3ccccn3)cc1CC2 [Example 32, 8-methyl-N-(1,3-oxazol-2-ylmethyl)-2-(pyridin-2-ylmethyl)-4,5-dihydro-2H-furo[2,3-g]indazole-7-carboxamide]
13 | 0.066 | Cc1c(C(=O)NC[C@@H]2CCCO2)oc2c1-c1nn(Cc3ccccn3)cc1C(C)C2 (mixture of isomers) [Example 247, (4+)-4,8-dimethyl-N-{[(2S)-oxolan-2-yl]methyl}-2-[(pyridin-2-yl)methyl]-4,5-dihydro-2H-furo[2,3-g]indazole-7-carboxamide]
14 | 9.5 | Cc1c(C(=O)NCC2(F)COC2)oc2c1-c1nn(Cc3ccccn3)cc1CC2 [Example 37, N-[(3-fluorooxetan-3-yl)methyl]-8-methyl-2-(pyridin-2-ylmethyl)-4,5-dihydro-2H-furo[2,3-g]indazole-7-carboxamide]
15 | 0.047 | Cc1c(C(=O)NC[C@@H]2COCCO2)oc2c1-c1nn(CC3(F)COC3)cc1CC2 [Example 96, N-[(2R)-1,4-dioxan-2-ylmethyl]-2-[(3-fluorooxetan-3-yl)methyl]-8-methyl-4,5-dihydro-2H-furo[2,3-g]indazole-7-carboxamide]
16 | 0.018 | O=C(NC[C@@H]1COCCO1)c1oc2c(c1C(F)(F)F)-c1nn(C[C@@H]3COCCO3)cc1CC2 [Example 220, N,2-bis{[(2R)-1,4-dioxan-2-yl]methyl}-8-(trifluoromethyl)-4,5-dihydro-2H-furo[2,3-g]indazole-7-carboxamide]
17 | 0.139 | COCC(=O)N1CCC(Cn2cc3c(n2)-c2c(oc(C(=O)NC[C@@H]4COCCO4)c2C(F)(F)F)CC3)CC1 [Example 283, N-{[(2R)-1,4-dioxan-2-yl]methyl}-2-{[1-(methoxyacetyl)piperidin-4-yl]methyl}-8-(trifluoromethyl)-4,5-dihydro-2H-furo[2,3-g]indazole-7-carboxamide]
18 | 0.026 | O=C(NC[C@@H]1CCCO1)c1oc2c(c1C(F)(F)F)-c1nn(C[C@H]3COCCO3)cc1C1(CCC1)C2 [Example 271, 2′-[(2S)-1,4-dioxan-2-ylmethyl]-N-[(2S)-tetrahydrofuran-2-ylmethyl]-8′-(trifluormethyl)-2′,5′-dihydrospiro[cyclobutan-1,4′-furo[2,3-g]indazol]-7′-carboxamide]
19 | 0.027 | CC(=O)N1CCC(Cn2cc3c(n2)-c2c(oc(C(=O)NC[C@@H]4COCCO4)c2C(F)(F)F)CC3)CC1 [Example 306]
20 | 2.6 | Cc1c(C(=O)NC[C@H]2OCC[C@H]2C)oc2c1-c1nn(Cc3ccccn3)cc1CC2 (racemic) [Example 177]
21 | 0.141 | O=C(NCc1ncco1)c1oc2c(c1C(F)(F)F)-c1nn(Cc3ccccn3)cc1C1(CCC1)C2 [Example 275, N-(1,3-Oxazol-2-ylmethyl)-2′-(pyridin-2-ylmethyl)-8′-(trifluormethyl)-2′,5′-dihydrospiro[cyclobutan-1,4′-furo[2,3-g]indazol]-7′-carboxamide]
22 | 0.24 | Cc1c(C(=O)NC[C@@H]2CCCO2)oc2c1-c1nn(C(=O)N(C)C)cc1C1(CC1)C2 [Example 153]
23 | 0.018 | CC1CCC(CNC(=O)c2oc3c(c2C(F)(F)F)-c2nn(C[C@H]4COCCO4)cc2CC3)O1 (mixture of isomers) [Example 224, 2-{[(2S)-1,4-dioxan-2-yl]methyl}-N-{[(2±,5±)-5-methyloxolan-2-yl]methyl}-8-(trifluoromethyl)-4,5-dihydro-2H-furo[2,3-g]indazole-7-carboxamide]
24 | 0.118 | Cc1c(C(=O)NCC2CCC(C)O2)oc2c1-c1nn(Cc3ccccn3)cc1CC2 (mixture of isomers) [Example 176]
25 | 0.011 | Cc1c(C(=O)NC[C@@H]2CCCO2)oc2c1-c1nn(CC3CN(C(=O)OC(C)(C)C)C3)cc1CC2 [Example 109, tert-butyl 3-[(8-methyl-7-{[(2S)-tetrahydrofuran-2-ylmethyl]carbamoyl}-4,5-dihydro-2H-furo[2,3-g]indazol-2-yl)methyl]azetidine-1-carboxylate]
